# In paper PMC5686190 (Scientific Reports, 2017):
# Molecular target: recombinant NA-1 (H1N1 neuraminidase) (Influenza A virus, UniProt Q9IGQ6)
# Experiment: biochemical
# Conditions: not given
# recombinant NA-1 (H1N1 neuraminidase), sequence (Q9IGQ6 whole entry, looked up): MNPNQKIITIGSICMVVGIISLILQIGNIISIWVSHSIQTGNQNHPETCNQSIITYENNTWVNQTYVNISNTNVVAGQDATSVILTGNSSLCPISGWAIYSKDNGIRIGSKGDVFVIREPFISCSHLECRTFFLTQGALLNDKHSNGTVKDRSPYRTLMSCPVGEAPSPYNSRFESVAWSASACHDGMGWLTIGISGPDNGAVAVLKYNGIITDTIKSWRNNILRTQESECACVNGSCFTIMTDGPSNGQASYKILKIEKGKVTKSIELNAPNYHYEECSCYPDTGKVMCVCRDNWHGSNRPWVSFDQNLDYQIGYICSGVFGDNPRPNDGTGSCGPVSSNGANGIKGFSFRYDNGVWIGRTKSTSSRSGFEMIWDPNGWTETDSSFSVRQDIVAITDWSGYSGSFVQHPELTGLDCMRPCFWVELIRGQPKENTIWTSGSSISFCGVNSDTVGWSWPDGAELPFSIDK
Compound,IC10 on NA-1 activity [µg/mL],IC50 [µM],IC50 on NA-1 activity [µg/mL]
COc1c(O)cc(O)c2c(=O)cc(-c3ccccc3)oc12 [Wogonin],34.0 ± 5.1,866,
"CCC(CC)[C@H](NC(C)=O)[C@@H]1[C@H](O)[C@@H](C(=O)O)C[C@H]1N=C(N)N [Peramivir, reference compound]",64.8 ± 8.4,,478.8 ± 15.6
COc1c(O)cc2oc(-c3ccccc3)cc(=O)c2c1O [Oroxylin A],5.1 ± 1.4,202,
COc1cc2c(cc1OC)-c1cc3ccc4c(c3c[n+]1CC2)OCO4 [Epiberberine],,99.9,
COc1cc2c(cc1O)CC[n+]1cc3c(OC)c(OC)ccc3cc1-2 [Jatrorrhizine],1.9 ± 0.1,67.1,
O=C(O)[C@H]1O[C@@H](Oc2cc3oc(-c4ccccc4)cc(=O)c3c(O)c2O)[C@H](O)[C@@H](O)[C@@H]1O [Baicalin],,1650,
COc1c(O[C@@H]2O[C@H](C(=O)O)[C@@H](O)[C@H](O)[C@H]2O)cc2oc(-c3ccccc3)cc(=O)c2c1O [Oroxylin A 7-O-β-D-glucuronide],29.3 ± 7.8,621,
O=c1cc(-c2ccccc2)oc2cc(O)c(O)c(O)c12 [Baicalein],75.0 ± 29.1,590,
COC(=O)C1=CO[C@@H](O[C@@H]2O[C@H](CO)[C@@H](O)[C@H](O)[C@H]2O)[C@@H]2C(CO)=CC[C@H]12 [Geniposide],2.8 ± 0.2,87.5,
c1c2c(cc3c1OCO3)-c1cc3ccc4c(c3c[n+]1CC2)OCO4 [Coptisine],,327,
COc1cc2c(cc1OC)-c1cc3ccc(OC)c(OC)c3c[n+]1CC2 [Palmatine],2.1 ± 0.1,50.5,
COc1cc2c(cc1O)C[C@H]1c3cc(O)c(OC)cc3CC[N@@+]1(C)C2 [Phellodendrine],23.1 ± 2.7,599,
COc1c(O[C@@H]2O[C@H](C(=O)O)[C@@H](O)[C@H](O)[C@H]2O)cc(O)c2c(=O)cc(-c3ccccc3)oc12 [Wogonoside],19.6 ± 2.7,405,
COc1ccc2cc3[n+](cc2c1OC)CCc1cc2c(cc1-3)OCO2 [Berberine],3.1 ± 0.8,234,

# Test system: mouse liver sialidase
# Experiment: not given
# Conditions: cited from earlier work
row,Compound,Inhibition of mouse liver sialidase
1,COc1c(O)cc(O)c2c(=O)cc(-c3ccccc3)oc12 [Wogonin],inhibited
2,COc1c(O[C@@H]2O[C@H](C(=O)O)[C@@H](O)[C@H](O)[C@H]2O)cc(O)c2c(=O)cc(-c3ccccc3)oc12 [Wogonoside],inhibited

# Test system: bacterial NA
# Experiment: not given
# Conditions: cited from earlier work
row,Compound,Inhibition of bacterial NA activity
1,COc1cc2c(cc1O)CC[n+]1cc3c(OC)c(OC)ccc3cc1-2 [Jatrorrhizine],inhibited
2,c1c2c(cc3c1OCO3)-c1cc3ccc4c(c3c[n+]1CC2)OCO4 [Coptisine],inhibited
3,COc1cc2c(cc1OC)-c1cc3ccc(OC)c(OC)c3c[n+]1CC2 [Palmatine],inhibited
